From PubChem BioAssay AID488798 (The Scripps Research Institute Molecular Screening Center, 2010)
The source made the active and inactive calls. How the calls were made is not given here.

Biological target: Protein Rev (Human immunodeficiency virus type 1 group M subtype B (isolate HXB2)) (UniProt P04618)
Assay: inhibitors of HIV-1 Rev binding to RRE RNA, late-stage follow-up, counter-screen for gld-1 inhibitor project, biochemical, FRET, dose response (AID 488798)

Protein Rev (Human immunodeficiency virus type 1 group M subtype B (isolate HXB2)), sequence (P04618 whole entry, looked up): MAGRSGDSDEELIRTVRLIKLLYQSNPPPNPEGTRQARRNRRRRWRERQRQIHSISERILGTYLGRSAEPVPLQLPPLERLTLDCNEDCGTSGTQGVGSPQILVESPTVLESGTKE

SMILES | IC50
CCOC(=O)c1c(C)oc2c1cc(NS(=O)(=O)c1ccc(C)cc1)c1ccccc12 | > 75.4 µM (inactive)
Cc1ccc(S(=O)(=O)Nc2cc3c(C(=O)Nc4ccccc4)c(C)oc3c3ccccc23)c(C)c1 | > 75.4 µM (inactive)
O=C1C2=C(SCCS2)C(=O)N1CCCO | > 75.4 µM (inactive)
Nc1ccc2nonc2c1[N+](=O)[O-] | > 75.4 µM (inactive)
CCCCn1c(=O)[nH]c2nc3cc(NC(C)=O)ccc3nc2c1=O | inactive
CCN(CC)S(=O)(=O)c1ccc(N2CCCC2)c(NS(=O)(=O)c2ccc(F)cc2)c1 | > 75.4 µM (inactive)
Nc1c(O)ccc2c1C(=O)c1ccccc1C2=O | > 75.4 µM (inactive)
O=c1[nH]c2cc3ccccc3cc2nc1C(F)(F)F | inactive
O=C(CN1C(=O)NC2(CCCCC2)C1=O)Oc1ccc2c(C(F)(F)F)cc(=O)oc2c1 | > 75.4 µM (inactive)
COc1ccc(C=Nc2c(-c3ccco3)nc3ccccn23)cc1OC | > 75.4 µM (inactive)
Cc1ccc(S(=O)(=O)Nc2cc3c(C(=O)Nc4ccccc4)c(C)oc3c3ccccc23)cc1 | inactive
O=c1[nH]c(=O)c2nc3ccccc3nc2[nH]1 | > 75.4 µM (inactive)
COc1ccc(/C=C(\CC(=O)O)c2nc3ccccc3s2)cc1O | > 75.4 µM (inactive)
CC1=CC(=O)c2c(O)ccc(O)c2C1=O | > 75.4 µM (inactive)
Nc1ccc(O)c2c1C(=O)c1ccccc1C2=O | > 75.4 µM (inactive)
